The record followed here is patent publication US20230203060A1 (GENFLEET THERAPEUTICS (SHANGHAI) INC., priority 2020, published 2023).

Assay [1] concerns phosphorylated ERK downstream of KRAS G12C in MIA PaCa2 cells. The assay can be described thus: Cell p-ERK detection experiment (HTRF) in MIA PaCa2. The assay is classed as cell-based, human. The conditions noted are these: Homo sapiens, MIA PaCa-2, 2 h, MIA PaCa2 cells, 2 hours with compound, Advance ERK phospho-T202/Y204 HTRF kit; read-out: p-ERK IC50. The procedure, abridged:
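Phospho-ERK (T202/Y204) measured by HTRF after 30 min lysis and 4 h antibody incubation in MIA PaCa2 (KRAS G12C) cells, seeded at 2.5E4 per well and treated 2 h with compounds in 3.16-fold steps, final DMSO 0.1%. IC50 from a four-parameter fit of percent inhibition relative to DMSO and blank wells.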
Background: TR-FRET usually uses a lanthanide donor and a delayed reading to cut background.

Assay [2] relates to KRAS G12C mutant MIA PaCa-2 cells. The assay can be described thus: Cell proliferation inhibition experiment, 3D spheroid, CellTiter-Glo, MIA PaCa-2. The assay is classed as cell-based, human. The conditions noted are these: Homo sapiens, MIA PaCa-2, 120 h, 3D cell model in 384-well spheroid plate, 5 days, CellTiter-Glo; read-out: MIA-PaCa2 IC50. The method in brief:
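Luminescent ATP read-out (CellTiter-Glo) after 5-day compound treatment of spheroids formed overnight from 200 MIA PaCa-2 cells/well; compounds in 3.16-fold series, 0.1% DMSO final. IC50 derived by four-parameter fit of percent inhibition, normalized to DMSO control and medium blank.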
For orientation: In ATP-based viability assays light output follows the ATP content of the culture.

The term IC50 denotes the point on the concentration scale where inhibition reaches its midpoint.

Consider `C=CC(=O)N1CCN2C(=O)c3c(NC(C)(C)C)nc(-c4ccccc4F)c(Cl)c3OC[C@H]2C1` [Z457, (R)-8-acryloyl-1-(tert-butylamino)-4-chloro-3-(2-fluorophenyl)-6,6a,7,8,9,10-hexahydro-12H-pyrazino[2,1-c]pyrido[3,4-f][1,4]oxazepin-12-one], for which the figures for the IC50 in assay [1] and in assay [2] were 397 nM and 522 nM, respectively.

Take `C=CC(=O)N1CCN2C(=O)c3c(N4CC(C(=O)O)CC4(C)C)nc(-c4c(O)cccc4F)c(Cl)c3OC[C@H]2C1` (stereo partly drawn) [Z458, 1-((6aR)-8-acryloyl-4-chloro-3-(2-fluoro-6-hydroxyphenyl)-12-oxo-6,6a,7,8,9,10-hexahydro-12H-pyrazino[2,1-c]pyrido[3,4-f][1,4]oxazepin-1-yl)-5,5-dimethylpyrrolidine-3-carboxylic acid]: the IC50 is 6520 nM in assay [1] and greater than 1000 nM in assay [2].

Consider `C=CC(=O)N1CCN2C(=O)c3c(N4CCC(OC)C4(C)C)nc(-c4c(N)cccc4F)c(Cl)c3OC[C@H]2C1` (stereo partly drawn) [Z506, (6aR)-8-acryloyl-3-(2-amino-6-fluorophenyl)-4-chloro-1-(3-methoxy-2,2-dimethylpyrrolidin-1-yl)-6,6a,7,8,9,10-hexahydro-12H-pyrazino[2,1-c]pyrido[3,4-f][1,4]oxazepin-12-one], for which the figures for the IC50 in assay [1] and in assay [2] were 11 nM and 2.2 nM, respectively.

As for `C=CC(=O)N1CCN2C(=O)c3c(N4C[C@@H](N5CCC5)CC4(C)C)nc(-c4ccccc4F)c(Cl)c3OC[C@H]2C1` (single isomer, unassigned) [Z471-1], the values for the IC50 in assay [1] and in assay [2] were 188 nM and 42 nM, respectively.

For `C=CC(=O)N1CCN2C(=O)c3c(N4CCN(C)C[C@@H]4C)nc(-c4c(F)cccc4Cl)c(Cl)c3OC[C@H]2C1` [Z547, (6aR)-8-acryloyl-4-chloro-3-(2-chloro-6-fluorophenyl)-1-((S)-2,4-dimethylpiperazin-1-yl)-6,6a,7,8,9,10-hexahydro-12H-pyrazino[2,1-c]pyrido[3,4-f][1,4]oxazepin-12-one], the concentration for half-maximal inhibition (IC50) in assay [1] was found to be 135 nM; in assay [2], 43 nM.

Take `C=CC(=O)N1CCN2C(=O)c3c(N4C[C@H](N(C)CCO)CC4(C)C)nc(-c4ccccc4F)c(Cl)c3OC[C@H]2C1` (single isomer, unassigned) [Z658-2]: the IC50 amounted to 180 nM in assay [1] and 31 nM in assay [2].

For the molecule `C=CC(=O)N1CCN2C(=O)c3c(N4C[C@H](N5CCN(C)CC5)CC4(C)C)nc(-c4ccccc4F)c(Cl)c3OC[C@H]2C1` (single isomer, unassigned) [Z454-2], the IC50 in assay [1] came to 67 nM; in assay [2], 16.8 nM.

For the molecule `C=CC(=O)N1CCN2C(=O)c3c(N4C[C@H](N(C)C)CC4(C)C)nc(-c4c(F)ccc(F)c4O)c(Cl)c3OC[C@H]2C1` (single isomer, unassigned) [Z475-2], the 50% inhibitory concentration (IC50) stood at 107 nM in assay [1] and 15 nM in assay [2].

Turning to `C=CC(=O)N1CCN2C(=O)c3c(N4C[C@@H](N5CCN(C)CC5)CC4(C)C)nc(-c4ccccc4F)c(Cl)c3OC[C@H]2C1` (single isomer, unassigned) [Z454-1], the half-maximal inhibitory concentration (IC50) was 13 nM in assay [1] and 3.5 nM in assay [2].

In the case of `C=CC(=O)N1CCN2C(=O)c3c(N4CC(N(C)C)CC4(C)C)nc(-c4ccccc4F)c(Cl)c3OC[C@H]2C1` (single isomer, unassigned) [Z453-2], the 50% inhibitory concentration (IC50) is 168 nM in assay [1] and 45.2 nM in assay [2].

On to `C=CC(=O)N1CCN2C(=O)c3c(N4CCN(C)C[C@@H]4C)nc(-c4c(N)cccc4F)c(Cl)c3OC[C@H]2C1` [Z503, (6aR)-8-acryloyl-3-(2-amino-6-fluorophenyl)-4-chloro-1-((S)-2,4-dimethylpiperazin-1-yl)-6,6a,7,8,9,10-hexahydro-12H-pyrazino[2,1-c]pyrido[3,4-f][1,4]oxazepin-12-one], for which the IC50 in assay [1] came out at 42 nM; in assay [2], 7 nM.

`C=CC(=O)N1CCN2C(=O)c3c(N4C[C@@H](N5CCN(C)CC5)CC4(C)C)nc(-c4c(O)cccc4F)c(Cl)c3OC[C@H]2C1` (single isomer, unassigned) [Z469-1]: the half-maximal inhibitory concentration (IC50) in assay [1] was 8 nM; in assay [2], 0.6 nM.

In the case of `C=CC(=O)N1CCN2C(=O)c3c(N4C[C@H](N5CC(C(F)(F)F)C5)CC4(C)C)nc(-c4ccccc4F)c(Cl)c3OC[C@H]2C1` (single isomer, unassigned) [Z608-1], the IC50 was determined as 1220 nM in assay [1] and 330 nM in assay [2].

`C=CC(=O)N1CCN2C(=O)c3c(N4CC(N(C)CCO)CC4(C)C)nc(-c4ccccc4F)c(Cl)c3OC[C@H]2C1` (stereo partly drawn) [Z658, (6aR)-8-acryloyl-4-chloro-3-(2-fluorophenyl)-1-(4-((2-hydroxyethyl)(methyl)amino)-2,2-dimethylpyrrolidin-1-yl)-6,6a,7,8,9,10-hexahydro-12H-pyrazino[2,1-c]pyrido[3,4-f][1,4]oxazepin-12-one]: the half-inhibitory concentration (IC50) stood at 24 nM in assay [1] and 11.2 nM in assay [2].

Consider `C=CC(=O)N1CCN2C(=O)c3c(N4CC(N5CCN(C)CC5)CC4(C)C)nc(-c4ccccc4F)c(Cl)c3OC[C@H]2C1` (stereo partly drawn) [Z454, (6aR)-8-acryloyl-4-chloro-1-(2,2-dimethyl-4-(4-methylpiperazin-1-yl)pyrrolidin-1-yl)-3-(2-fluorophenyl)-6,6a,7,8,9,10-hexahydro-12H-pyrazino[2,1-c]pyrido[3,4-f][1,4]oxazepin-12-one], for which the values for the IC50 in assay [1] and in assay [2] were 24 nM and 4.7 nM, respectively.

In the case of `C=CC(=O)N1CCN2C(=O)c3c(N4C[C@@H](C)N(C)C[C@@H]4C)nc(-c4ccccc4F)c(Cl)c3OC[C@H]2C1` [Z464], the IC50 was determined as 523 nM in assay [1] and 179 nM in assay [2].

On to `C=CC(=O)N1CCN2C(=O)c3c(N4C[C@@H](N5CC(F)C5)CC4(C)C)nc(-c4ccccc4F)c(Cl)c3OC[C@H]2C1` [Z480-1, (R)-8-acryloyl-4-chloro-1-((S)-4-(3-fluoroazetidin-1-yl)-2,2-dimethylpyrrolidin-1-yl)-3-(2-fluorophenyl)-6,6a,7,8,9,10-hexahydro-12H-pyrazino[2,1-c]pyrido[3,4-f][1,4]oxazepin-12-one], for which the IC50 is 13 nM in assay [1] and 10 nM in assay [2].

Take `C=CC(=O)N1CCN2C(=O)c3c(N4C[C@@H](O)CC4(C)C)nc(-c4ccccc4F)c(F)c3OC[C@H]2C1` (single isomer, unassigned) [Z408-1]: the IC50 in assay [1] stood at 305 nM; in assay [2] it was 79.3 nM.

For the molecule `C=CC(=O)N1CCN2C(=O)c3c(N4C[C@@H](NC)CC4(C)C)nc(-c4ccccc4F)c(Cl)c3OC[C@H]2C1` (single isomer, unassigned) [Z661-1], the 50% inhibitory concentration (IC50) in assay [1] was 57 nM; in assay [2], 14 nM.

Take `C=CC(=O)N1CCN2C(=O)c3c(N4CCN(C)[C@@H](C)[C@@H]4C)nc(-c4ccccc4F)c(Cl)c3OC[C@H]2C1` [Z653, (R)-8-acryloyl-4-chloro-3-(2-fluorophenyl)-1-((2S,3S)-2,3,4-trimethylpiperazin-1-yl)-6,6a,7,8,9,10-hexahydro-12H-pyrazino[2,1-c]pyrido[3,4-f][1,4]oxazepin-12 (6aH)-one]: the values for the IC50 in assay [1] and in assay [2] were 184 nM and 53 nM, respectively.

With `C=CC(=O)N1CCN2C(=O)c3c(N4CC(O)CC4(C)C)nc(-c4c(O)cccc4F)c(Cl)c3OC[C@H]2C1` (stereo partly drawn) [Z50, (6aR)-8-amyloyl-4-chloro-3-(2-fluoro-6-hydroxyphenyl)-1-(4-hydroxy-2,2-dimethylpyrrolidin-1-yl)-6,6a,7,8,9,10-hexahydro-12H-pyrazino[2,1-c]pyrido[3,4-f][1,4]oxazepin-12-one], the 50% inhibitory concentration (IC50) in assay [1] came to 28 nM; in assay [2], 2 nM.

Turning to `C=CC(=O)N1CCN2C(=O)c3c(N4C[C@@H](N5CC(C#N)C5)CC4(C)C)nc(-c4ccccc4F)c(Cl)c3OC[C@H]2C1` (single isomer, unassigned) [Z637-2], the figures for the IC50 in assay [1] and in assay [2] were 68 nM and 10 nM, respectively.

As to `C=CC(=O)N1CCN2C(=O)c3c(N4C[C@H](N(C)C)CC4(C)C)nc(-c4cccc(C)c4F)c(Cl)c3OC[C@H]2C1` (single isomer, unassigned) [Z472-2], the IC50 was determined as 108 nM in assay [1] and 53 nM in assay [2].

For the molecule `C=CC(=O)N1CCN2C(=O)c3c(N4CC(N5CCN(C)CC5)CC4(C)C)nc(-c4ccccc4F)c(F)c3OC[C@H]2C1` (stereo partly drawn) [Z474, (6aR)-8-acryloyl-1-(2,2-dimethyl-4-(4-methylpiperazin-1-yl)pyrrolidin-1-yl)-4-fluoro-3-(2-fluorophenyl)-6,6a,7,8,9,10-hexahydro-12H-pyrazino[2,1-c]pyrido[3,4-f][1,4]oxazepin-12-one], the figures for the IC50 in assay [1] and in assay [2] were 90 nM and 17 nM, respectively.

As to `C=CC(=O)N1CCN2C(=O)c3c(N4C[C@@H](N(C)CC(F)F)CC4(C)C)nc(-c4ccccc4F)c(Cl)c3OC[C@H]2C1` (single isomer, unassigned) [Z659-1], the IC50 in assay [1] was 249 nM; in assay [2], 16 nM.

With `C=CC(=O)N1CCN2C(=O)c3c(N4C[C@H](N(C)CC(F)(F)F)CC4(C)C)nc(-c4ccccc4F)c(Cl)c3OC[C@H]2C1` (single isomer, unassigned) [Z493], the values for the IC50 in assay [1] and in assay [2] were 433 nM and 112 nM, respectively.

As for `C=CC(=O)N1CCN2C(=O)c3c(N4CCN(C)C[C@@H]4C)nc(-c4c(F)cccc4C(F)F)c(Cl)c3OC[C@H]2C1` [Z456, (6aR)-8-acryloyl-4-chloro-3-(2-(difluoromethyl)-6-fluorophenyl)-1-((S)-2,4-dimethylpiperazin-1-yl)-6,6a,7,8,9,10-hexahydro-12H-pyrazino[2,1-c]pyrido[3,4-f][1,4]oxazepin-12-one], the 50% inhibitory concentration (IC50) in assay [1] is 77 nM; in assay [2], 22.8 nM.
